Here are results for 15 molecules from patent publication US20140148443A1, “Novel Imidazolines as dual inhibitors of MDM2 and MDMX” (priority 2012, published 2014).

For one assay, the target named is T1, GST-tagged MDMX (Homo sapiens, UniProt O15151).
T1 sequence (O15151 1-490): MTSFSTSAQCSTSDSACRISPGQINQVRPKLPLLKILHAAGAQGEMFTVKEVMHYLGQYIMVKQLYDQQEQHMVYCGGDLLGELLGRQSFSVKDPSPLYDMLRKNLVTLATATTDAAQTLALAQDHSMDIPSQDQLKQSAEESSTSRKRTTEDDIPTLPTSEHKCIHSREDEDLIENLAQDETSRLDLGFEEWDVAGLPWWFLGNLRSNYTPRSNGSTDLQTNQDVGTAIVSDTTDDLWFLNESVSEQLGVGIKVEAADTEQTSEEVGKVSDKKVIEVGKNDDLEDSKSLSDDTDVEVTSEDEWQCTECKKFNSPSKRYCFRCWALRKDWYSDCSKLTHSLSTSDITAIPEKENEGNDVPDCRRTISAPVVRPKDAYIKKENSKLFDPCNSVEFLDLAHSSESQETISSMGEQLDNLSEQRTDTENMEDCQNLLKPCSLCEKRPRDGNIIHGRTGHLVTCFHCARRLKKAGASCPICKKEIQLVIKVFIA
The assay can be described thus: HTRF binding assay of GST-tagged MDMX to p53 peptide.

The target in assay [1] is recombinant GST-tagged MDM2 (Homo sapiens, UniProt Q00987). The assay is described as follows: HTRF assay of interaction between p53 peptide and GST-tagged MDM2. The note with it: inhibition of GST-MDM2 (160 ng/ml) binding to biotinylated p53-peptide. The procedure:
The ability of a test compound to inhibit the interaction between p53 and MDM2 protein was measured by an HTRF (homogeneous time-resolved fluorescence) assay in which recombinant GST-tagged MDM2 binds to a peptide that resembles the MDM2-interacting region of p53 Aca-[…]-OH hereinafter p53-peptide). Binding of GST-MDM2 protein and p53-peptide (biotinylated on its N-terminal end) is registered by the FRET (fluorescence resonance energy transfer) between Europium (Eu)-labeled anti-GST antibody and streptavidin-conjugated Allophycocyanin (APC).
The test was performed in black flat-bottom 384-well plates (Costar) in a total volume of 40 uL containing: 90 nM biotinylated peptide, 160 ng/ml GST-MDM2, 20 nM streptavidin-APC (PerkinElmerWallac), 2 nM Eu-labeled anti-GST-antibody (PerkinElmerWallac), 0.02% bovine serum albumin (BSA), 1 mM dithiothreitol (DTT) and 20 mM […] (TBS) buffer as follows: add 10 uL of GST-MDM2 (640 ng/ml working solution) in reaction buffer to each well. Add 10 uL diluted compounds (1:5 dilution in reaction buffer) to each well, mix by shaking. Add 20 uL biotinylated p53 peptide (180 nM working solution) in reaction buffer to each well and mix on shaker. Incubate at 37° C. for 1 h. Add […] streptavidin-APC and Eu-anti-GST antibody mixture (6 nM Eu-anti-GST and 60 nM streptavidin-APC working solution) in TBS buffer with 0.02% BSA, shake at room temperature for 30 minutes and read using a TRF-capable plate reader at 665 and 615 nm (Victor 5, Perkin ElmerWallac). If not specified, the reagents were purchased from Sigma Chemical Co.
(In general: In TR-FRET formats the signal depends on donor and acceptor labels being close together.)

pIC50: −log10 of the molar value.

One may read the pIC50 as the negative decadic logarithm of the IC50, by convention in mol/L.

recombinant GST-tagged MDM2, sequence (Q00987 whole entry): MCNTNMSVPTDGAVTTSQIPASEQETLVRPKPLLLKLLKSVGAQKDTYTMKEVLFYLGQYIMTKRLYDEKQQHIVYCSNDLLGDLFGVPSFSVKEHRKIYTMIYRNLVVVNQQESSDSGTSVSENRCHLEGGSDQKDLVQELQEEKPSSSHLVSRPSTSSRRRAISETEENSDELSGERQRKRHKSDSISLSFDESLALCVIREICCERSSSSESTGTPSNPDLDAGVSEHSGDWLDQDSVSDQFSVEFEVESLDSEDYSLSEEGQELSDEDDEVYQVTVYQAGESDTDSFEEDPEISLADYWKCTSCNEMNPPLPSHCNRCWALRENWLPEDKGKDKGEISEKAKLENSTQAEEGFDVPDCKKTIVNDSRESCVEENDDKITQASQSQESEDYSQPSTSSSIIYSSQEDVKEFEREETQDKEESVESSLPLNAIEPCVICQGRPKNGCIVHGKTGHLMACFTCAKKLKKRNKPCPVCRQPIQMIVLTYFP

In the case of `CC(C)Oc1cc(Cl)c(S(=O)(=O)N2CCCC2)cc1C1=N[C@@](C)(c2ccc(Cl)cc2)[C@@](C)(c2ccc(Cl)cc2)N1C(=O)N1CCN(CCCS(C)(=O)=O)CC1` [Example 58, [(4S,5R)-2-[4-Chloro-2-isopropoxy-5-(pyrrolidine-1-sulfonyl)-phenyl]-4,5-bis-(4-chloro-phenyl)-4,5-dimethyl-4,5-dihydro-imidazol-1-yl]-[4-(3-methanesulfonyl-propyl)-piperazin-1-yl]-methanone], the pIC50 on GST-tagged MDMX is 6.64; in assay [1], 8.34.
For `CCOc1cc(Cl)c(S(C)(=O)=O)cc1C1=N[C@@](C)(c2ccc(Cl)cc2)[C@@](C)(c2ccc(Cl)cc2)N1C(=O)N1CCN(CCCS(=O)(=O)CC)CC1` [Example 14, [(4S,5R)-2-(4-Chloro-2-ethoxy-5-methanesulfonyl-phenyl)-4,5-bis-(4-chloro-phenyl)-4,5-dimethyl-4,5-dihydro-imidazol-1-yl]-[4-(3-ethanesulfonyl-propyl)-piperazin-1-yl]-methanone], the pIC50 on GST-tagged MDMX is 5.84; in assay [1], 8.33.
As to `CCOc1cc(Cl)c(S(C)(=O)=O)cc1C1=N[C@@](C)(c2ccc(Cl)cc2)[C@@](C)(c2ccc(Cl)cc2)N1C(=O)N1CCN(CC(=O)N(CCOC(C)C)CCOC(C)C)CC1` [Example 23, 2-{4-[(4S,5R)-2-(4-Chloro-2-ethoxy-5-methanesulfonyl-phenyl)-4,5-bis-(4-chloro-phenyl)-4,5-dimethyl-4,5-dihydro-imidazole-1-carbonyl]-piperazin-1-yl}-N,N-bis-(2-isopropoxy-ethyl)-acetamide], the results for the pIC50 (on GST-tagged MDMX; in assay [1]) were 5.73 and 8.26, respectively.
On the same counts, the results for `CCOc1cc(Cl)c(S(=O)(=O)NC(C)(C)C)cc1C1=N[C@@](C)(c2ccc(Cl)cc2)[C@@](C)(c2ccc(Cl)cc2)N1C(=O)N1CCN(C2CCS(=O)(=O)C2)CC1` (stereo partly drawn) [Example 51, 5-{(4S,5R)-4,5-Bis-(4-chloro-phenyl)-1-[4-(1,1-dioxo-tetrahydro-thiophen-3-yl)-piperazine-1-carbonyl]-4,5-dimethyl-4,5-dihydro-1H-imidazol-2-yl}-N-tert-butyl-2-chloro-4-ethoxy-benzenesulfonamide] are 6.10 and 8.15.
Taken in the same sequence, the figures for `CCOc1cc(Cl)c(S(=O)(=O)CC)cc1C1=N[C@@](C)(c2ccc(Cl)cc2)[C@@](C)(c2ccc(Cl)cc2)N1C(=O)N1CCN(CCCS(C)(=O)=O)CC1` [Example 12, [(4S,5R)-2-(4-Chloro-5-ethanesulfonyl-2-ethoxy-phenyl)-4,5-bis-(4-chloro-phenyl)-4,5-dimethyl-4,5-dihydro-imidazol-1-yl]-[4-(3-methanesulfonyl-propyl)-piperazin-1-yl]-methanone] were 6.00 and 8.26.
Turning to `CCOc1cc(Cl)c(S(C)(=O)=O)cc1C1=N[C@@](C)(c2ccc(Cl)cc2)[C@@](C)(c2ccc(Cl)cc2)N1C(=O)N1CCC2(CCNCC2)CC1` [Example 19, [(4S,5R)-2-(4-Chloro-2-ethoxy-5-methanesulfonyl-phenyl)-4,5-bis-(4-chloro-phenyl)-4,5-dimethyl-4,5-dihydro-imidazol-1-yl]-(3,9-diaza-spiro[5.5]undec-3-yl)-methanone], the results for the pIC50 (on GST-tagged MDMX; in assay [1]) were 5.42 and 7.90, respectively.
For `CCOc1cc(Cl)c(S(C)(=O)=O)cc1C1=N[C@@](C)(c2ccc(Cl)cc2)[C@@](C)(c2ccc(Cl)cc2)N1C(=O)N1CCN(C2CCS(=O)(=O)C2)CC1` (stereo partly drawn) [Example 20, [(4S,5R)-2-(4-Chloro-2-ethoxy-5-methanesulfonyl-phenyl)-4,5-bis-(4-chloro-phenyl)-4,5-dimethyl-4,5-dihydro-imidazol-1-yl]-[4-(1,1-dioxo-tetrahydro-thiophen-3-yl)-piperazin-1-yl]-methanone], the pIC50 is 5.44 at GST-tagged MDMX and 8.27 in assay [1].
As to `CCOc1cc(Cl)c(S(C)(=O)=O)cc1C1=N[C@@](C)(c2ccc(Cl)cc2)[C@@](C)(c2ccc(Cl)cc2)N1C(=O)N1CCC(N)CC1` [Example 8, (4-Amino-piperidin-1-yl)-[(4S,5R)-2-(4-chloro-2-ethoxy-5-methanesulfonyl-phenyl)-4,5-bis-(4-chloro-phenyl)-4,5-dimethyl-4,5-dihydro-imidazol-1-yl]-methanone], the pIC50 was 5.97 on GST-tagged MDMX and 8.36 in assay [1].
Consider `CCC(C)Oc1cc(Cl)c(S(C)(=O)=O)cc1C1=N[C@@](C)(c2ccc(Cl)cc2)[C@@](C)(c2ccc(Cl)cc2)N1C(=O)N1CCN(CCCS(C)(=O)=O)CC1` (stereo partly drawn) [Example 44, [(4S,5R)-2-(2-sec-Butoxy-4-chloro-5-methanesulfonyl-phenyl)-4,5-bis-(4-chloro-phenyl)-4,5-dimethyl-4,5-dihydro-imidazol-1-yl]-[4-(3-methanesulfonyl-propyl)-piperazin-1-yl]-methanone], for which the pIC50 at GST-tagged MDMX was 5.82; in assay [1], 7.86.
In the case of `CC(C)Oc1cc(Cl)c(S(=O)(=O)N2C[C@H]3CC[C@@H](C2)O3)cc1C1=N[C@@](C)(c2ccc(Cl)cc2)[C@@](C)(c2ccc(Cl)cc2)N1C(=O)N1CCN(CCCS(C)(=O)=O)CC1` [Example 62, [(4S,5R)-2-{4-Chloro-2-isopropoxy-5-[(1R,5S)-(8-oxa-3-aza-bicyclo[3.2.1]oct-3-yl)sulfonyl]-phenyl}-4,5-bis-(4-chloro-phenyl)-4,5-dimethyl-4,5-dihydro-imidazol-1-yl]-[4-(3-methanesulfonyl-propyl)-piperazin-1-yl]-methanone], the negative logarithm of the IC50 (pIC50) at GST-tagged MDMX is 6.71; in assay [1], 8.32.
As to `CCOc1cc(Cl)c(S(C)(=O)=O)cc1C1=N[C@@](C)(c2ccc(Cl)cc2)[C@@](C)(c2ccc(Cl)cc2)N1C(=O)N1CCN(CCC(N)=O)CC1` [Example 27, 3-{4-[(4S,5R)-2-(4-Chloro-2-ethoxy-5-methanesulfonyl-phenyl)-4,5-bis-(4-chloro-phenyl)-4,5-dimethyl-4,5-dihydro-imidazole-1-carbonyl]-piperazin-1-yl}-propionamide], the pIC50 on GST-tagged MDMX was 5.55; in assay [1] it was 8.06.
Consider `CCOc1cc(Cl)c(S(C)(=O)=O)cc1C1=N[C@@](C)(c2ccc(Cl)cc2)[C@@](C)(c2ccc(Cl)cc2)N1C(=O)N1CCC(CCCS(C)(=O)=O)CC1` [Example 22, [(4S,5R)-2-(4-Chloro-2-ethoxy-5-methanesulfonyl-phenyl)-4,5-bis-(4-chloro-phenyl)-4,5-dimethyl-4,5-dihydro-imidazol-1-yl]-[4-(3-methanesulfonyl-propyl)-piperidin-1-yl]-methanone], for which the negative logarithm of the IC50 (pIC50) at GST-tagged MDMX is 5.87; in assay [1], 8.34.
For the molecule `CCOc1cc(Cl)c(S(=O)(=O)NC(C)(C)C)cc1C1=N[C@@](C)(c2ccc(Cl)cc2)[C@@](C)(c2ccc(Cl)cc2)N1C(=O)N1CCN(CC(=O)NCCOC)CC1` [Example 49, 2-{4-[(4S,5R)-2-(5-tert-Butylsulfamoyl-4-chloro-2-ethoxy-phenyl)-4,5-bis-(4-chloro-phenyl)-4,5-dimethyl-4,5-dihydro-imidazole-1-carbonyl]-piperazin-1-yl}-N-(2-methoxy-ethyl)-acetamide], the figures for the pIC50 (on GST-tagged MDMX; in assay [1]) were 5.87 and 8.06, respectively.
For the molecule `CCOc1cc(Cl)c(S(C)(=O)=O)cc1C1=N[C@@](C)(c2ccc(Cl)cc2)[C@@](C)(c2ccc(Cl)cc2)N1C(=O)N1CCN(S(C)(=O)=O)CC1` [Example 7, [(4S,5R)-2-(4-Chloro-2-ethoxy-5-methanesulfonyl-phenyl)-4,5-bis-(4-chloro-phenyl)-4,5-dimethyl-4,5-dihydro-imidazol-1-yl]-(4-methanesulfonyl-piperazin-1-yl)-methanone], the values for the pIC50 (on GST-tagged MDMX; in assay [1]) were 5.60 and 8.20, respectively.
As to `C[C@@]1(c2ccc(Cl)cc2)N=C(c2cc(S(C)(=O)=O)c(Cl)cc2OCCF)N(C(=O)N2CCN(CCCS(C)(=O)=O)CC2)[C@]1(C)c1ccc(Cl)cc1` [Example 43, [(4S,5R)-2-[4-Chloro-2-(2-fluoro-ethoxy)-5-methanesulfonyl-phenyl]-4,5-bis-(4-chloro-phenyl)-4,5-dimethyl-4,5-dihydro-imidazol-1-yl]-[4-(3-methanesulfonyl-propyl)-piperazin-1-yl]-methanone], the pIC50 on GST-tagged MDMX is 5.86; in assay [1], 8.01.
